Results published in US20080207643A1, “Composition for Treating Hyperlipaemia” (priority 2004, published 2008).

Assays:
normal rats = assay: Effects on the blood lipid level in the normal rats; format: in vivo, Wistar rats; conditions: gavage 4 days
Protocol: Wistar rats, bred by the Medical Experimental Animal Centre of Chinese Academy of Military Medical Sciences, certificate No. […] By calculating in accordance with the principle of dosage equivalent per body surface area, the above mentioned generally used dosage for human was converted into the dosage for rats of about 50 mg/kg/day. […] By calculating in accordance with the principle of dosage equivalent per body surface area, the above mentioned generally used dosage for human was converted into the dosage for rats of about 0.85 mg/kg/day.

hyperlipemia rat model [1] = assay: Effects on the blood lipid level in hyperlipemia model rats (high lipid containing feed); format: in vivo, Wistar rats; conditions: gavage 14 days
From the text: Each group included 10 rats. […] The measurement is the same as the experiment conducted on normal rats as described in section 5.4.

hyperlipemia rat model [2] = assay: Comparison of the different formulations of acipimox in combination with atorvastatin calcium on hyperlipemia of rats; format: in vivo, Wistar rats; conditions: comparison test, gavage 14 days
From the text: The level of serum total cholesterol level was respectively measured before grouping, and then randomly grouping by following the balance principle. Each group included 10 rats.

[3] = cited from earlier work
hyperlipemia model rats = assay: Effects on the activity of seroenzyme (alanine transaminase, creatine kinase) in the model rats; conditions: for Alanine transaminase / Creatine kinase: serum of model rats, gavage 14 days
Protocol: Hyperlipemia rat model was established by inducing hyperlipemia with high lipid containing feed. The formulation of high lipid containing feed was as follows: basic feed 86.3%, cholesterol 3%, lard 10%, methylthiouracil 0.2% and porcine bile salt 0.5%, and were allowed to be mixed uniformly. The rats were continuously fed for 2 weeks. During the administration of drugs, high lipid containing feed was administered every other day.
The serum bio-chemical index includes total cholesterol (TC), alanine transaminase (ALT), creatine kinase (CK), triglyceride (TG), low density lipoprotein-cholesterol (LDL-C), high density lipoprotein-cholesterol (LDL-C). The reagents for measuring alanine transaminase (ALT) and creatine kinase (CK) were produced by Beijing Zhongsheng High-Tech Bioengineering Company, and SABA/18 Automatic Biochemical Analyzer was used for measurement. Other reagents were produced by Roche Inc., Japan, and Hitachi 7020 Automatic Biochemical Analyzer was used for measurement. The measuring methods are based on the specifications of the reagents, and the rats were fasted for 16 hours before collecting blood.
The administering route intended for the clinical application is oral administration, and thus gavage administration was used in the present experiment for continuous 14 days. Gavage administration was conducted on the rats after feeding, once per day. The dosing volume is 0.3 ml/100 g of body weight.

hyperlipemia patients = conditions: 80 mg/d, 22 hyperlipemia patients; cited from earlier work

Cc1cnc(C(=O)O)c[n+]1[O-] [Acipimox, acipimox]
High density lipoprotein-cholesterol (normal rats; acipimox 100 mg/kg): 0.97 ± 0.16 mmol/L
Low density lipoprotein-cholesterol (normal rats; acipimox 100 mg/kg): 0.32 ± 0.12 mmol/L
Total cholesterol in serum (normal rats; acipimox 100 mg/kg): 1.60 ± 0.35 mmol/L
Triglyceride in serum (normal rats; acipimox 100 mg/kg): 0.71 ± 0.27 mmol/L
High density lipoprotein-cholesterol (normal rats; acipimox 200 mg/kg): 0.98 ± 0.23 mmol/L
Low density lipoprotein-cholesterol (normal rats; acipimox 200 mg/kg): 0.26 ± 0.11 mmol/L
Total cholesterol in serum (normal rats; acipimox 200 mg/kg): 1.55 ± 0.28 mmol/L
Triglyceride in serum (normal rats; acipimox 200 mg/kg): 0.69 ± 0.33 mmol/L
High density lipoprotein-cholesterol (normal rats; acipimox 300 mg/kg): 1.15 ± 0.26 mmol/L
Low density lipoprotein-cholesterol (normal rats; acipimox 300 mg/kg): 0.29 ± 0.11 mmol/L
Total cholesterol in serum (normal rats; acipimox 300 mg/kg): 1.51 ± 0.26 mmol/L
Triglyceride in serum (normal rats; acipimox 300 mg/kg): 0.63 ± 0.28 mmol/L
High density lipoprotein-cholesterol (normal rats; acipimox 400 mg/kg): 1.18 ± 0.13 mmol/L
Low density lipoprotein-cholesterol (normal rats; acipimox 400 mg/kg): 0.24 ± 0.14 mmol/L
Total cholesterol in serum (normal rats; acipimox 400 mg/kg): 1.49 ± 0.28 mmol/L
Triglyceride in serum (normal rats; acipimox 400 mg/kg): 0.57 ± 0.36 mmol/L
High density lipoprotein-cholesterol (hyperlipemia rat model [1]; acipimox 100 mg/kg): 3.95 ± 0.63 mmol/L
Low density lipoprotein-cholesterol (hyperlipemia rat model [1]; acipimox 100 mg/kg): 8.44 ± 1.06 mmol/L
Total cholesterol in serum (hyperlipemia rat model [1]; acipimox 100 mg/kg): 13.18 ± 2.31 mmol/L
Triglyceride in serum (hyperlipemia rat model [1]; acipimox 100 mg/kg): 1.98 ± 0.42 mmol/L
High density lipoprotein-cholesterol (hyperlipemia rat model [1]; acipimox 200 mg/kg): 4.35 ± 0.55 mmol/L
Low density lipoprotein-cholesterol (hyperlipemia rat model [1]; acipimox 200 mg/kg): 8.23 ± 0.40 mmol/L
Total cholesterol in serum (hyperlipemia rat model [1]; acipimox 200 mg/kg): 10.82 ± 3.05 mmol/L
Triglyceride in serum (hyperlipemia rat model [1]; acipimox 200 mg/kg): 1.78 ± 0.55 mmol/L
High density lipoprotein-cholesterol (hyperlipemia rat model [1]; acipimox 300 mg/kg): 4.56 ± 0.50 mmol/L
Low density lipoprotein-cholesterol (hyperlipemia rat model [1]; acipimox 300 mg/kg): 7.79 ± 0.89 mmol/L
Total cholesterol in serum (hyperlipemia rat model [1]; acipimox 300 mg/kg): 10.73 ± 2.36 mmol/L
Triglyceride in serum (hyperlipemia rat model [1]; acipimox 300 mg/kg): 1.69 ± 0.51 mmol/L
High density lipoprotein-cholesterol (hyperlipemia rat model [1]; acipimox 400 mg/kg): 4.70 ± 0.58 mmol/L
Low density lipoprotein-cholesterol (hyperlipemia rat model [1]; acipimox 400 mg/kg): 7.65 ± 0.40 mmol/L
Total cholesterol in serum (hyperlipemia rat model [1]; acipimox 400 mg/kg): 11.18 ± 2.47 mmol/L
Triglyceride in serum (hyperlipemia rat model [1]; acipimox 400 mg/kg): 1.72 ± 0.54 mmol/L
High density lipoprotein-cholesterol (hyperlipemia rat model [2]; acipimox 200 mg/kg): 4.20 ± 1.10 mmol/L
Low density lipoprotein-cholesterol (hyperlipemia rat model [2]; acipimox 200 mg/kg): 7.27 ± 1.83 mmol/L
Total cholesterol in serum (hyperlipemia rat model [2]; acipimox 200 mg/kg): 10.31 ± 1.67 mmol/L
Triglyceride in serum (hyperlipemia rat model [2]; acipimox 200 mg/kg): 1.79 ± 0.63 mmol/L
High density lipoprotein-cholesterol (hyperlipemia rat model [2]; acipimox 300 mg/kg): 4.54 ± 0.52 mmol/L
Low density lipoprotein-cholesterol (hyperlipemia rat model [2]; acipimox 300 mg/kg): 6.96 ± 1.23 mmol/L
Total cholesterol in serum (hyperlipemia rat model [2]; acipimox 300 mg/kg): 8.69 ± 1.88 mmol/L
Triglyceride in serum (hyperlipemia rat model [2]; acipimox 300 mg/kg): 1.68 ± 0.56 mmol/L
combination with plasma protein ([3]; in vivo): does not combine with plasma protein
excretion and metabolism ([3]; in vivo): excreted mainly in the form of Acipimox itself, without being metabolized
half life ([3]; oral administration): 2 h
time to the peak of plasma concentration after administration ([3]; oral administration): ≤ 2 h
levels of alanine transaminase and creatine kinase in serum in comparison with the model control group (hyperlipemia model rats; model rats, 14 days, acipimox 100 to 400 mg/kg, P>0.05): not remarkably different
Alanine transaminase (hyperlipemia model rats; acipimox 100 mg/kg): 640.3 ± 117.6 nmol/s/L
Creatine kinase (hyperlipemia model rats; acipimox 100 mg/kg): 361.4 ± 106.4 U/L
Alanine transaminase (hyperlipemia model rats; acipimox 200 mg/kg): 645.4 ± 124.9 nmol/s/L
Creatine kinase (hyperlipemia model rats; acipimox 200 mg/kg): 354.4 ± 110.9 U/L
Alanine transaminase (hyperlipemia model rats; acipimox 300 mg/kg): 655.5 ± 110.5 nmol/s/L
Creatine kinase (hyperlipemia model rats; acipimox 300 mg/kg): 380.33 ± 120.1 U/L
Alanine transaminase (hyperlipemia model rats; acipimox 400 mg/kg): 642.8 ± 114.2 nmol/s/L
Creatine kinase (hyperlipemia model rats; acipimox 400 mg/kg): 377.3 ± 103.4 U/L

CC(C)c1c(C(=O)Nc2ccccc2)c(-c2ccccc2)c(-c2ccc(F)cc2)n1CC[C@@H](O)C[C@@H](O)CC(=O)O [Atorvastatin calcium, calcium [R-(R′,R′)]2-(4-fluorophenyl)-βδ-dihydroxyl-5-(1-methylethyl)-3-phenyl-4-[aniline]carbonyl]-1-hydro-pyrrolyl-1-heptanoate trihydrate]
Total cholesterol in serum (normal rats; atorvastatin calcium 5 mg/kg): 1.64 ± 0.30 mmol/L
Triglyceride in serum (normal rats; atorvastatin calcium 5 mg/kg): 0.67 ± 0.28 mmol/L
Total cholesterol in serum (normal rats; atorvastatin calcium 10 mg/kg): 1.52 ± 0.31 mmol/L
Triglyceride in serum (normal rats; atorvastatin calcium 10 mg/kg): 0.65 ± 0.33 mmol/L
Total cholesterol in serum (normal rats; atorvastatin calcium 20 mg/kg): 1.46 ± 0.24 mmol/L
Triglyceride in serum (normal rats; atorvastatin calcium 20 mg/kg): 0.55 ± 0.16 mmol/L
Total cholesterol in serum (normal rats; atorvastatin calcium 30 mg/kg): 1.41 ± 0.29 mmol/L
Triglyceride in serum (normal rats; atorvastatin calcium 30 mg/kg): 0.51 ± 0.18 mmol/L
Total cholesterol in serum (hyperlipemia rat model [1]; atorvastatin calcium 5 mg/kg): 12.45 ± 2.67 mmol/L
Triglyceride in serum (hyperlipemia rat model [1]; atorvastatin calcium 5 mg/kg): 1.93 ± 0.52 mmol/L
Total cholesterol in serum (hyperlipemia rat model [1]; atorvastatin calcium 10 mg/kg): 11.23 ± 2.12 mmol/L
Triglyceride in serum (hyperlipemia rat model [1]; atorvastatin calcium 10 mg/kg): 1.80 ± 0.28 mmol/L
Total cholesterol in serum (hyperlipemia rat model [1]; atorvastatin calcium 20 mg/kg): 10.27 ± 2.67 mmol/L
Triglyceride in serum (hyperlipemia rat model [1]; atorvastatin calcium 20 mg/kg): 1.72 ± 0.47 mmol/L
Total cholesterol in serum (hyperlipemia rat model [1]; atorvastatin calcium 30 mg/kg): 9.91 ± 2.65 mmol/L
Triglyceride in serum (hyperlipemia rat model [1]; atorvastatin calcium 30 mg/kg): 1.78 ± 0.55 mmol/L
Total cholesterol in serum (hyperlipemia rat model [2]; atorvastatin calcium 10 mg/kg): 10.20 ± 1.62 mmol/L
Triglyceride in serum (hyperlipemia rat model [2]; atorvastatin calcium 10 mg/kg): 1.56 ± 0.62 mmol/L
Total cholesterol in serum (hyperlipemia rat model [2]; atorvastatin calcium 20 mg/kg): 9.65 ± 2.22 mmol/L
Triglyceride in serum (hyperlipemia rat model [2]; atorvastatin calcium 20 mg/kg): 1.47 ± 0.56 mmol/L
decreases the activity of coagulation factor VII (hyperlipemia patients): 8%
decreases the coagulation rate of platelet induced by thromboxane A2 (TXA2) (hyperlipemia patients): 11%
